Test results taken from publication PMC8712300 (European Journal of Nuclear Medicine and Molecular Imaging, 2021).
Where “and” joins values, the source holds several entries; their conditions need not be identical. Equal entries are not always repeated. Where two headings read alike, the source gives them in different places.

Legend:
TSPO [1] = molecular target: T1, TSPO (Rattus norvegicus, UniProt P16257)
[2] = molecular target: central benzodiazepine receptor (CBR); settings: read-out: Ki CBR; displacement of [^3H]flunitrazepam, rat cerebral cortex
Method: (§1) The binding assay was performed following a previously published procedure [22], with slight modifications.

TSPO [3] = molecular target: T1, TSPO; remark: listed apart in the source
Method: Male Sprague–Dawley rats (7–8 weeks old, Orientbio Inc.) were used to create rat models of neuroinflammation and ischemic stroke (n = 4 for each model). An acute neuroinflammation rat model was generated by injecting lipopolysaccharides (LPS, 50 μg) into the right striatum of rat brain according to our previous protocol [26]. […] In the case of LPS-induced neuroinflammatory model, rats were anesthetized with ketamine hydrochloride (50 mg/kg) and xylazine hydrochloride (0.2 mg/kg) before LPS injection.
The PET imaging study was performed using a dedicated animal PET/CT scanner (NanoPET/CT; Mediso Inc., Budapest, Hungary) with a 10-cm axial field-of-view (FOV) and a 12-cm transaxial FOV. Before PET imaging, the rats were anesthetized with 2% isoflurane. […]
(§2) The volumes of interest (VOIs) were drawn around the peak PET activity on the ipsilateral region in a coronal PET/CT slice, and symmetrically pasted into the contralateral side on the same slice to yield a contralateral VOI of identical volume and shape. […] Decay-corrected radioactivity in the VOI was expressed as the standardized uptake value (SUV), which was normalized to the injected radioactivity and body weight of the rat using PMOD software version 3.6 (PMOD Technologies Ltd., Zurich, Switzerland). […] The binding potential (BPND) was also calculated as a quantitative value, which represented the receptor binding with the radioligand. […]

TSPO [4] = molecular target: T1, TSPO; remark: listed apart in the source
From the text: Male Sprague–Dawley rats (7–8 weeks old, Orientbio Inc.) were used to create rat models of neuroinflammation and ischemic stroke (n = 4 for each model). […] An ischemic stroke rat model was generated via 60-min occlusion of the right middle cerebral artery (MCAO), as previously described [27]. […] In the case of ischemic stroke model, rats were anesthetized with 5% isoflurane in the presence of 30% nitrous oxide and 70% oxygen, and then were under anesthesia with 2% isoflurane in the presence of 30% nitrous oxide and 70% oxygen during MCAO surgery.
The PET imaging study was performed using a dedicated animal PET/CT scanner (NanoPET/CT; Mediso Inc., Budapest, Hungary) with a 10-cm axial field-of-view (FOV) and a 12-cm transaxial FOV. […]
as §2

[5] = not given; remark: listed apart in the source
physchem = settings: n-octanol/PBS
Method: (§3) After vortexing for 1 min, each tube was placed on a table at 25 °C for 3 min. Samples of each phase (100 μL) were counted for radioactivity using a gamma-counter. Log D is expressed as the logarithm of the ratio of the count of n-octanol to that of PBS.

in vitro [6] = settings: human, human plasma
Method: (§4) Plasma protein binding (PPB) was measured using two plasma samples obtained from five rats and a healthy volunteer. […] The mixtures were transferred to the Amicon® Ultra 30 K device (Merck Millipore, USA), and centrifuged at 12,000 rpm for 15 min. […] The plasma-free fraction (fP) was calculated as fp = (APfree /APtotal)/(ASfree/AStotal).

[7] = 37 °C, 120 min
Method: Aliquots (0.2 mL) were collected at 0, 15, 30, 60, and 120 min and mixed with acetonitrile (0.2 mL), and then centrifuged at 3500 rpm for 5 min. The resulting supernatants were analyzed using a radio-TLC scanner with the developing solvent (50% ethyl acetate-hexane).

[8] = n-octanol/PBS pH 7.4, individual replicates
Method: as §3

[9] = normal mice, PET 90 min
Method: Normal male C57BL/6 mice (n = 4, 6–7 weeks old, Orientbio Inc.) were used to perform in vivo organ distribution and dosimetry studies (see methodological details in the SI).
All the mice (n = 4) were anesthetized with 2% isoflurane. […] The CT images were used to draw region of interest (ROI) on the following organs: the brain, heart, lung, liver, stomach, urinary bladder, intestine kidneys and adrenals. […] The accumulated activity for each organ were calculated by using the area under curve (AUC) of TACs.

in vitro [10] = settings: rat, rat plasma
Method: as §4

TSPO [11] = molecular target: T1, TSPO; experiment: biochemical
Method: as §1

TSPO-mutant A147T (LAB) = TSPO-mutant A147T (LAB) (Homo sapiens, UniProt P30536); experiment: biochemical
TSPO-WT (HAB) = TSPO-WT (HAB) (Homo sapiens, UniProt P30536, T147A); experiment: biochemical
TSPO-WT (HAB), sequence (P30536 whole entry T147A): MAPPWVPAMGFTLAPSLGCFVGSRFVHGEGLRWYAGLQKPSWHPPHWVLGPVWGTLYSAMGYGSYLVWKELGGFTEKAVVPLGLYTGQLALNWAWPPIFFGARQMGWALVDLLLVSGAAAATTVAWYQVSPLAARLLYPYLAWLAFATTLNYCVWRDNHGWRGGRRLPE

T1 sequence (P16257 whole entry): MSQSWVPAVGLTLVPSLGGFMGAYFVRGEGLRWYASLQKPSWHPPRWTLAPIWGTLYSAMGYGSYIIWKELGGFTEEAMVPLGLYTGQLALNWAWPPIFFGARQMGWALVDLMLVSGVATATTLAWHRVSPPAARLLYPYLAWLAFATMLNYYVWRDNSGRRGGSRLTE
TSPO-mutant A147T (LAB), sequence (P30536 whole entry, stated change not applied): as the sequence (P30536 whole entry T147A) above, with A147T counted along it

CCC(C)N(C)C(=O)c1cc2ccccc2c(-c2ccccc2Cl)n1 (stereo not drawn) [PK 11195]
effect on [^18F]BS224 radioactivity in brain slices (blocking) (TSPO [1]): significant reduction of radioactivity | Ki [2]: > 100000 nM

CCCN(CCC)C(=O)Cc1c(-c2ccc(OCCF)cc2)nc2c(Cl)cc(Cl)cn12 [CB251]
Ki [2]: > 100000 nM

CCCN(CCC)C(=O)Cc1c(-c2ccc([18F])cc2)nc2c(Cl)cc(Cl)cn12 [[^18F]BS224, 2-(-2-(4-[^18F]fluorophenyl)-6,8-dichloro-imidazo[1,2-a]pyridin-3-yl)-N,N-dipropylacetamide]
skull uptake (TSPO [3]; LPS model PET): not observed | BPND (TSPO [3]; LPS model, SRTM, contralateral side as reference): 1.43 ± 0.17 | skull uptake (TSPO [4]; ischemic stroke model PET): not observed | BPND (TSPO [4]; ischemic stroke model, SRTM, contralateral side as reference): 1.57 ± 0.37 | % in heart, Parent (30 min): Intact | % in kidneys, Parent (30 min): Intact | % in liver, Parent (30 min): 73.6% and 73.6 ± 5.9% | % in lung, Parent (30 min): Intact | % in plasma, Parent (30 min): 90.7 ± 0.8% | % in brain, Parent (30 min after i.v. injection, rat): Intact | % in heart, Parent (90 min): Intact | % in kidneys, Parent (90 min): Intact | % in liver, Parent (90 min): 53.1% and 53.1 ± 2.7% | % in lung, Parent (90 min): Intact | % in plasma, Parent (90 min): 69.2 ± 2.9% | % in brain, Parent (90 min after i.v. injection, rat): Intact | radioactivity in the femur (in vivo defluorination) (gamma counting, rat): no radioactivity could be detected | Effective dose (estimated whole-body human) ([5]; extrapolated from normal mouse data): 5.18 μSv/MBq and 05.18 ± 1.03 μSv/MBq | Estimated Human Absorbed Dose, Adrenals ([5]; from normal mouse data): 09.66 ± 2.52 µGy/MBq | Estimated Human Absorbed Dose, Brain ([5]; from normal mouse data): 04.87 ± 0.90 µGy/MBq | Estimated Human Absorbed Dose, Breast ([5]; from normal mouse data): 02.28 ± 0.60 µGy/MBq | Estimated Human Absorbed Dose, Colon wall ([5]; from normal mouse data): 02.79 ± 0.55 µGy/MBq | Estimated Human Absorbed Dose, ET region ([5]; from normal mouse data): 00.75 ± 0.14 µGy/MBq | Estimated Human Absorbed Dose, Endosteum (bone surface) ([5]; from normal mouse data): 00.91 ± 0.19 µGy/MBq | Estimated Human Absorbed Dose, Eye lenses ([5]; from normal mouse data): 00.52 ± 0.09 µGy/MBq | Estimated Human Absorbed Dose, Gallbladder wall ([5]; from normal mouse data): 14.98 ± 3.89 µGy/MBq | Estimated Human Absorbed Dose, Heart wall ([5]; from normal mouse data): 10.54 ± 3.14 µGy/MBq | Estimated Human Absorbed Dose, Kidneys ([5]; from normal mouse data): 26.23 ± 8.91 µGy/MBq | Estimated Human Absorbed Dose, Liver ([5]; from normal mouse data): 28.88 ± 7.70 µGy/MBq | Estimated Human Absorbed Dose, Lung ([5]; from normal mouse data): 07.99 ± 2.42 µGy/MBq | Estimated Human Absorbed Dose, Lymphatic nodes ([5]; from normal mouse data): 02.60 ± 0.55 µGy/MBq | Estimated Human Absorbed Dose, Muscle ([5]; from normal mouse data): 00.77 ± 0.17 µGy/MBq | Estimated Human Absorbed Dose, Oesophagus ([5]; from normal mouse data): 03.90 ± 1.04 µGy/MBq | Estimated Human Absorbed Dose, Oral mucosa ([5]; from normal mouse data): 00.50 ± 0.09 µGy/MBq | Estimated Human Absorbed Dose, Pancreas ([5]; from normal mouse data): 07.79 ± 1.88 µGy/MBq | Estimated Human Absorbed Dose, Prostate ([5]; from normal mouse data): 00.43 ± 0.05 µGy/MBq | Estimated Human Absorbed Dose, Red (active) bone marrow ([5]; from normal mouse data): 02.01 ± 0.45 µGy/MBq | Estimated Human Absorbed Dose, Salivary glands ([5]; from normal mouse data): 00.49 ± 0.09 µGy/MBq | Estimated Human Absorbed Dose, Skin ([5]; from normal mouse data): 00.54 ± 0.12 µGy/MBq | Estimated Human Absorbed Dose, Small intestine wall ([5]; from normal mouse data): 07.30 ± 0.29 µGy/MBq | Estimated Human Absorbed Dose, Spleen ([5]; from normal mouse data): 02.90 ± 0.71 µGy/MBq | Estimated Human Absorbed Dose, Stomach wall ([5]; from normal mouse data): 09.06 ± 3.12 µGy/MBq | Estimated Human Absorbed Dose, Testes ([5]; from normal mouse data): 00.06 ± 0.00 µGy/MBq | Estimated Human Absorbed Dose, Thymus ([5]; from normal mouse data): 01.88 ± 0.52 µGy/MBq | Estimated Human Absorbed Dose, Thyroid ([5]; from normal mouse data): 00.95 ± 0.25 µGy/MBq | Estimated Human Absorbed Dose, Urinary bladder wall ([5]; from normal mouse data): 09.46 ± 2.73 µGy/MBq | logD (physchem; pH 7.4, Log D (single measurements 1-5), n-octanol/PBS pH 7.4, individual replicates): 2.78 | logD (physchem; pH 7.4, Log D, n-octanol/PBS pH 7.4, 25 °C, average n = 5): 2.78 ± 0.04 | fraction unbound at 10 min, 1.19 MBq/mL (in vitro [6]): 0.049 ± 0.005 | parent compound remained intact in human serum [7]: over 99% | Log D (single measurements 1-5) [8]: 2.754 and 2.735 | AUC Brain [9]: 201.75±19.25 %ID/g min | AUC Heart [9]: 442.73±84.59 %ID/g min | AUC Intestine [9]: 250.45±7.71 %ID/g min | AUC Kidney [9]: 1345.08±260.65 %ID/g min | AUC Liver [9]: 1102.68±140.38 %ID/g min | AUC Lung [9]: 403.48±82.21 %ID/g min | AUC Stomach [9]: 198.98±53.18 %ID/g min | AUC Urinary Bladder [9]: 91.44±21.23 %ID/g min | Cmax Brain [9]: 5.78±1.51 %ID/g | Cmax Heart [9]: 20.81±8.05 %ID/g | Cmax Intestine [9]: 3.66±0.19 %ID/g | Cmax Kidney [9]: 16.33±3.08 %ID/g | Cmax Liver [9]: 16.21±1.95 %ID/g | Cmax Lung [9]: 14.38±5.88 %ID/g | Cmax Stomach [9]: 3.12±0.81 %ID/g | Cmax Urinary Bladder [9]: 1.35±0.22 %ID/g | Tmax Brain [9]: 1.83 ± 0.68 min | Tmax Heart [9]: 0.83 ± 0.20 min | Tmax Intestine [9]: 38.96 ± 21.39 min | Tmax Kidney [9]: 64.38 ± 16.21 min | Tmax Liver [9]: 38.29 ± 20.60 min | Tmax Lung [9]: 0.71 ± 0.24 min | Tmax Stomach [9]: 41.88 ± 23.30 min | Tmax Urinary Bladder [9]: 45.94 ± 14.36 min | fraction unbound at 10 min, 1.19 MBq/mL (in vitro [10]): 0.064 ± 0.003

CCCN(CCC)C(=O)Cc1c(-c2ccc(F)cc2)nc2c(Cl)cc(Cl)cn12 [BS224]
Ki (TSPO [11]): 0.51 ± 0.03 nM | IC50 (TSPO-mutant A147T (LAB)): 450 ± 20 nM | Ki [2]: > 100000 nM | IC50 (TSPO-WT (HAB)): 590 ± 40 nM

CN1C(=O)CN=C(c2ccccc2F)c2cc([N+](=O)[O-])ccc21 [Flunitrazepam]
Ki [2]: 6.2 ± 0.1 nM
